Assays:
Full-length human MNK1 = biological target: T1, Full-length human MNK1 (Homo sapiens, UniProt Q9BUB5, T385D); assay: MNK1 biochemical IC50 assay (Caliper Mobility Shift Assay); settings: read-out: P(IC50) MNK1 (converted)
T1 construct: GST (N); purchased Carna Biosciences 02-145; host or cells: baculovirus expression system

Full-length human MNK2 = biological target: T2, Full-length human MNK2 (Homo sapiens, UniProt Q9HBH9, T379D); assay: MNK2 biochemical IC50 assay (Caliper Mobility Shift Assay); settings: read-out: P(IC50) MNK2 (converted)
T2 construct: GST (N); purchased Carna Biosciences 02-146; host or cells: baculovirus expression system

[1] = tested on: phosphorylation of eIF4E at ser209 in MV4.11 cell line; assay: MNK cellular activity phospho-eIF4E detection assay (Alphascreen Surefire); type: cell-based; settings: Homo sapiens; MV4.11 cell line, phospho-eIF4E (ser209) Alphascreen Surefire; read-out: P(IC50) elF4E (converted)
Method in brief: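 AlphaScreen SureFire sandwich-immunoassay readout of phospho-eIF4E Ser209 in lysed MV4.11 cells; acceptor then donor beads, each 1.5 hr at room temperature. Signal normalised to untreated DMSO-only controls; duplicate curves, values averaged over at least 2 independent experiments.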

T1 sequence (Q9BUB5 1-424 isoform Q9BUB5-2 T344D): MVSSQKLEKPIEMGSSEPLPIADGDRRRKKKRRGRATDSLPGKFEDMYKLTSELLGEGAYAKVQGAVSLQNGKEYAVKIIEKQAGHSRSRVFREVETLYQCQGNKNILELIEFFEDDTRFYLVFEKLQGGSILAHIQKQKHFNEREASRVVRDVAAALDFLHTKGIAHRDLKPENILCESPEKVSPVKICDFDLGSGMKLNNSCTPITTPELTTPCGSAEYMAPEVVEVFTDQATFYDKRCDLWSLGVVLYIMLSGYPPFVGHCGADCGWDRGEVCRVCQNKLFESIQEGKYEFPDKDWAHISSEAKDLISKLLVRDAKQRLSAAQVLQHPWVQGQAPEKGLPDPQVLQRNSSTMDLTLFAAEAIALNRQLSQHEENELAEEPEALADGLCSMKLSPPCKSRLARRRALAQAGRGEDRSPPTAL
T2 sequence (Q9HBH9 whole entry T379D): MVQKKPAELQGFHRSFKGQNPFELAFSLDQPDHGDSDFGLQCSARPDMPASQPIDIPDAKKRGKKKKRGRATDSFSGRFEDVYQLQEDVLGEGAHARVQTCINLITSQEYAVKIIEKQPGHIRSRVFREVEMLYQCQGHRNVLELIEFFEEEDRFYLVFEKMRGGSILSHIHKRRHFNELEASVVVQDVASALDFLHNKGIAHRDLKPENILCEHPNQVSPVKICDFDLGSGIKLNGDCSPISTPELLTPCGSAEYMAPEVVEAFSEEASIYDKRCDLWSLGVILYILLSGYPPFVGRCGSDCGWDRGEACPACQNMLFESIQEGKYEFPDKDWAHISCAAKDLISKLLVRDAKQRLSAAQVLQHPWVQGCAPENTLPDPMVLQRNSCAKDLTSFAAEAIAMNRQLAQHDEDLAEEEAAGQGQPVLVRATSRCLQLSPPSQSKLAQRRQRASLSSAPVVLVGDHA

SMILES	IC50 (Full-length human MNK1) [nM]	IC50 (Full-length human MNK2) [nM]	IC50 [1] [nM]
CN(C)CCCNC(=O)c1nc2c(Nc3cccc4c3OCC4)ncnc2s1 [Example 26, 7-(2,3-Dihydrobenzofuran-7-ylamino)-N-[3-(dimethylamino)propyl]thiazolo[5,4-d]pyrimidine-2-carboxamide]	1580	1580	1000
CNCCC1CN(c2ncnc3sc(C(=O)NC4CCOCC4)nc23)c2ccc(F)cc21 (stereo not drawn) [Example 147, 7-[5-fluoro-3-[2-(methyl-amino)ethyl]indolin-1-yl]-N-tetrahydropyran-4-yl-thiazolo[5,4-d]pyrimidine-2-carboxamide]	7.94	10	15.8
CCOc1cc(F)ccc1Nc1ncnc2sc(C(=O)NCC3CCNCC3)nc12 [Example 53, 7-(2-ethoxy-4-fluoro-anilino)-4-(4-piperidylmethyl)thiazolo[5,4-d]pyrimidine-2-carboxamide]	100	126	126
CN1CCN(CCC2CN(c3ncnc4sc(C(=O)NC5CCOCC5)nc34)c3ccccc32)CC1 (stereo not drawn) [Example 155, 7-[3-[2-(4-methylpiperazin-1-yl)ethyl]indolin-1-yl]-N-tetrahydropyran-4-yl-thiazolo[5,4-d]pyrimidine-2-carboxamide]	126	79.4	50.1
CC(C)Oc1cc(F)ccc1Nc1ncnc2sc(C(=O)NCC(O)CO)nc12 (stereo not drawn) [Example 12, N-(2,3-dihydroxypropyl)-7-(4-fluoro-2-isopropoxy-anilino)thiazolo[5,4-d]pyrimidine-2-carboxamide]	126	63.1	50.1
O=C(NC1CCOCC1)c1nc2c(N3CC4(CCOCC4)c4ccccc43)ncnc2s1 [Example 108, 7-spiro[indoline-3,4′-tetrahydropyran]-1-yl-N-tetrahydropyran-4-yl-thiazolo[5,4-d]pyrimidine-2-carboxamide]	63.1	39.8	31.6
C[C@@H]1Cc2ccccc2N1c1ncnc2sc(C(=O)NCC3CCNCC3)nc12 [Example 127, (R)-7-(2-Methylindolin-1-yl)-N-(piperidin-4-ylmethyl)thiazolo[5,4-d]pyrimidine-2-carboxamide]	12.6	15.8	15.8
CC(C)Oc1cc(F)ccc1Nc1ncnc2sc(C(=O)N3CC4(CNC4)C3)nc12 [Example 7, 2,6-diazaspiro[3.3]heptan-2-yl-[7-(4-fluoro-2-isopropoxy-anilino)thiazolo[5,4-d]pyrimidin-2-yl]methanone]	251	251	316
O=C(NCC1CCNCC1)c1nc2c(Nc3ccc(F)cc3OC(CF)CF)ncnc2s1 [Example 52, 7-[4-fluoro-2-[2-fluoro-1-(fluoromethyl)ethoxy]anilino]-N-(4-piperidylmethyl)thiazolo[5,4-d]pyrimidine-2-carboxamide]	63.1	63.1	100
CC(C)Oc1cc(F)ccc1Nc1ncnc2sc(C(=O)NCCCN(C)C)nc12 [Example 3, N-[3-(Dimethylamino)propyl]-7-(4-fluoro-2-isopropoxy-anilino)thiazolo[5,4-d]pyrimidine-2-carboxamide]	63.1	50.1	50.1

Other lines, results leading:

IC50 (Full-length human MNK1) [nM]	IC50 (Full-length human MNK2) [nM]	IC50 [1] [nM]	SMILES
79.4	50.1	251	CN1CCN(c2nc3c(N4CCc5cc(F)ccc54)ncnc3s2)CC1 [Example 88, 7-(5-fluoroindolin-1-yl)-2-(4-methylpiperazin-1-yl)thiazolo[5,4-d]pyrimidine]
398	251	501	CN1CCN(C(=O)c2nc3c(N4CCc5ccccc54)ncnc3s2)CC1 [Example 96, (7-indolin-1-ylthiazolo[5,4-d]pyrimidin-2-yl)-(4-methylpiperazin-1-yl)methanone]
79.4	63.1	39.8	COc1ccc2c(c1)CCN2c1ncnc2sc(C(=O)NCC3CCNCC3)nc12 [Example 63, 7-(5-methoxyindolin-1-yl)-N-(4-piperidylmethyl)thiazolo[5,4-d]pyrimidine-2-carboxamide]
1.58	3.16	2	O=C(NC1CCOCC1)c1nc2c(N3CC4(CC4)c4cc(F)ccc43)ncnc2s1 [Example 107, 7-(5′-fluorospiro[cyclopropane-1,3′-indoline]-1′-yl)-N-tetrahydropyran-4-yl-thiazolo[5,4-d]pyrimidine-2-carboxamide]
31.6	31.6	158	CC(C)(O)c1nc2c(N3CCc4cc(F)ccc43)ncnc2s1 [Example 82, 2-[7-(5-Fluoroindolin-1-yl)thiazolo[5,4-d]pyrimidin-2-yl]propan-2-ol]
79.4	79.4	251	CN1CCN(C(=O)c2nc3c(N4CCc5cc(F)ccc54)ncnc3s2)CC1 [Example 65, [7-(5-fluoroindolin-1-yl)thiazolo[5,4-d]pyrimidin-2-yl]-(4-methylpiperazin-1-yl)methanone]

From US10669284B2, “Fused thiazolopyrimidine derivatives as MNKS inhibitors” (LIFEARC, priority 2015, dated 2020)
